Source: US9969744B2, “Compounds for use in cognition improvement” (FUNDACIÓN PARA LA INVESTIGACIÓN MÉDICA APLICADA, priority 2014, dated 2018)

Key:
[1] = tested on: AcH3; test: In-vivo AcH3 in hippocampus of wild type mice; set-up: key: basal x1 means no increment (+); basal x1.4≤(++)<basal x2; basal x2≤(+++)<basal x3; basal x3≤(++++); N.E. means No Effect; conditions: single dose of 1 mg/Kg i.p.
Procedure: (§1) Another group of animals received the vehicle (1/1/8, v:v:v, DMSO/Tween 20/saline). One hour later, mice were sacrificed by cervical dislocation and their hippocampus was quickly dissected from the brains. Total tissue homogenates were obtained by homogenizing the hippocampus in a cold lysis buffer with protease inhibitors (0.2 M NaCl, 0.1 M HEPES, 10% glycerol, 200 mM NaF, 2 mM Na4P2O7, 5 mM EDTA, 1 mM EGTA, 2 mM DTT, 0.5 mM PMSF, 1 mM Na3VO4 and Complete Protease Inhibitor Cocktail, Roche Diagnostics). The homogenate was then centrifuged at 14,000×g at 4° C. for 20 min and the supernatant aliquoted and stored at −80° C. Total protein concentrations were determined using the BioRad Bradford protein assay (BioRad Laboratories). Protein samples were analyzed as described in the “in vitro” section.

[2] = tested on: phosphorylated tau (p-Tau); test: AD-related markers in Tg2576 neurons: pTau; type: cell-based, mouse; conditions: Mus musculus, Primary neuron, references, read-out: pTau EC50 (50% decrease in pTau levels over basal)
Procedure: The effects of the compounds on amyloid pathology were analysed in primary cultures after 21 days in-vitro (DIV) of neurons derived from the hippocampus and cortex of Tg2576 mouse embryos. Tg2576 mice express the human 695-aa isoform of APP (hAPP) containing the Swedish double mutation, which favours A3 production. Neurons were treated for two days and collected at day 3, 24 h after the last treatment. First it was analysed the effect of the compounds on hAPP processing by the amyloidogenic pathway by measuring the carboxyl terminal fragment AβPP (C99), which is the precursor of Aβ42. […]
It was next analyzed the effect of the compounds on levels of phosphorylated tau (p-Tau) in the same samples, another marker of AD, using a phospho-specific antibody (AT8) that recognizes hyperphosphorylated epitopes on Ser202/Thr205. […]
To analyze APP-derived fragments and p-Tau levels in primary neuronal cultures, cells were collected in a buffer containing SDS (2%), Tris-HCl (10 mM, pH 7.4), protease inhibitors (1 mM phenylmethylsulfonyl fluoride (PMSF) and Complete Protease Inhibitor Cocktail: Roche Diagnostics) and phosphatase inhibitors (0.1 mM Na3VO4 and 1 mM NaF). […] Aliquots of the supernatant were frozen at […] and their protein concentrations determined by the Bradford method using the Bio-Rad protein assay (Bio-Rad, Hercules, Calif., USA). […]

[3] = tested on: pTau; test: AD-related markers in Tg2576 mice: pTau; type: in vivo; conditions: hippocampal homogenates, footnote: single dose of 1 mg/Kg i.p.
[4] = tested on: acetylated histone 3 at Lys9 (AcH3K9); test: HDAC activity using SHSY-5Y cell line (Western blot, histone 3 acetylation); type: cell-based, human; set-up: key: basal x1 means no increment (+); basal x1.4≤(++)<basal x2; basal x2≤(+++)<basal x3; basal x3≤(++++); N.E. means No Effect; conditions: SHSY-5Y cells, 24 hours, compound concentration 1 μM
Procedure: HDAC inhibition leads to the corresponding functional response, increase in AcH3 level. Therefore, the cellular assay to conclude HDAC activity was assessed by Western blot analysis using specific antibodies against acetylated histone 3 at Lys9 (AcH3K9). Cell cultures were treated at 100 nM, 500 nM, 1 μM and/or 5 μM with compounds of the invention or known PDE inhibitors during 24 hours and, Table 1 (below) describes the functional activity: histone 3 acetylation level (AcH3) vs basal (no treatment).
A human neuroblastoma cell line (SHSY-5Y) was used. Cell line was obtained from ATCC (CRL-2266) and cultured in 35 mm plates (Becton Dickinson, NJ).
The cells were grown to 90% confluence at 37° C. in an atmosphere of 5% CO2 and in Dulbecco's modified Eagle's medium supplemented with Glutamax (Gibco, Invitrogen, CA), 100 units/ml penicillin/streptomycin, 1×MEM nonessential amino acids and 10% fetal bovine serum (Gibco, Invitrogen, CA).
Cells were collected and sonicated in a buffer containing a cold lysis buffer with protease inhibitors (0.2 M NaCl, 0.1 M HEPES (4-(2-hydroxyethyl)-1-piperazineethanesulfonic acid), 10% glycerol, 200 mM NaF, 2 mM Na4P2O7, 5 mM EDTA (ethylenediaminetetraacetic acid), 1 mM EGTA (ethylene glycol tetraacetic acid), 2 mM DTT (dithiothreitol), 0.5 mM PMSF (phenylmethylsulfonyl fluoride), 1 mM Na3VO4 and Complete Protease Inhibitor Cocktail, Roche Diagnostics), centrifuged at 14,000×g 4° C. for 20 min and the supernatant was aliquoted and stored at −80° C. Total protein concentrations were determined using the BioRad Bradford protein assay (BioRad Laboratories).
Protein samples were mixed with Laemmli sample buffer, resolved onto Sodium Dodecyl Sulfate (SDS)-polyacrylamide gels and transferred to nitrocellulose membrane. The membranes were blocked with 5% milk, 0.05% Tween-20 in PBS (Phosphate-Buffered Saline) or TBS (Tris-Buffered Saline) followed by overnight incubation with the following primary antibodies: rabbit polyclonal anti-acetylated Histone 3 (acetyl K9) (Cell Signalling Technology), rabbit polyclonal anti-total Histone 3 (Millipore), in the corresponding buffer. All the antibodies were used at 1:1000 dilution except the mouse monoclonal anti-β-actin which was used at 1:50.000. Following two washes in TBS/Tween20 and one wash in TBS alone, immunolabeled protein bands were detected by using HRP-conjugated anti-rabbit or anti-mouse antibody (Santa Cruz Biotechnology; dilution 1:5.000) following an enhanced chemiluminescence system (ECL, GE Healthcare Bioscience, Buckinghamshire, UK), and autoradiographic exposure to HyperfilmtECL (GE Healthcare Bioscience). Quantity One™ software v.4.6.3 (Bio-Rad) was used for quantification.

[5] = tested on: pCREB; test: In-vivo pCREB in hippocampus of wild type mice; conditions: single dose of 1 mg/Kg i.p.
Procedure: as §1

[6] = molecular target: T1, PDE9A (Homo sapiens, UniProt O76083); test: PDE enzyme activity assay (HTRF cGMP), PDE9A; type: biochemical; conditions: recombinant enzyme; read-out: PDE9A inhibition (IC50)
T1 construct: they are full-length with N-terminal GST tag; GST (N); purchased BPS Biosciences 60090; host or cells: baculovirus infected Sf9 cells
T1 sequence (O76083 1-533 isoform O76083-2): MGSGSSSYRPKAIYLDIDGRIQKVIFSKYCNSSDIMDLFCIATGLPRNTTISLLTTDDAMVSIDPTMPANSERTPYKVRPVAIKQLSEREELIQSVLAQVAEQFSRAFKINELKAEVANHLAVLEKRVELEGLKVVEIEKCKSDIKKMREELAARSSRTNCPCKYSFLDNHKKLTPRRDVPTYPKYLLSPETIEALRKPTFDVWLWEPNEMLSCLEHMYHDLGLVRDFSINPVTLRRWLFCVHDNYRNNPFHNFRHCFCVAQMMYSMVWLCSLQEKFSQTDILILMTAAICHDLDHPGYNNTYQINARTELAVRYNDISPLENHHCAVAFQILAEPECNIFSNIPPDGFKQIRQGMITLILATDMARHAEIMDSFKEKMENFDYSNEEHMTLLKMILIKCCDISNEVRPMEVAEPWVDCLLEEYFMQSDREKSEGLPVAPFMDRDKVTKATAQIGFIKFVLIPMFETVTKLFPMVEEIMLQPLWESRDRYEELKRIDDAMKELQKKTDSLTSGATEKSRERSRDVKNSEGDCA

In the case of `CN1CC(=O)N2[C@H](c3ccc4c(c3)OCO4)c3[nH]c4ccccc4c3C[C@@H]2C1=O` [Tadalafil], the “AcH3 increment vs basal” value [1] is reported as “N.E”, the EC50 [2] is reported as 10 to 1000 nM and the “pTau biological response vs basal” value [3] is reported as “+++ (basal x2≤(+++)<basal x3)”. For the same molecule, the “AcH3: increment in Histone 3 acetylation level vs basal” value [4] was “N.E”, the “pCREB increment vs basal” value [5] was “+++ (basal x2≤(+++)<basal x3)” and the IC50 [6] was greater than 10000 nM.
